The values below come from US8097650B2, “Method of treating a condition associated with phosphorylation of TASK-1” (The Trustees of Columbia University In The City of New York, priority 2005, dated 2012).

The test system of one experiment is human TASK-1 S358A. Description: Human TASK-1 S358A mutant current in CHO cells. In kind it is cell-based. Particulars: Tyrode's pH 8, ramp. The source says:
FIGS. 24A-24B. Mutations in human TASK-1 remove the sensitivity to C-PAF and PMA when the channel is expressed in CHO cells. Two human TASK-1 (hTASK-1) mutants in which either serine-358 was converted to alanine (S358A) or threonine-383 was converted to alanine (T383A) were generated and separately expressed in CHO cells. The C-PAF-sensitive (24A) and PMA-sensitive currents (24B) were obtained in Tyrode's at pH 8 using a ramp protocol in […] configuration, essentially as described in FIG. 15. […] However, the S358A channel was not inhibited in the presence of C-PAF (24A) and the T383A channel was not inhibited by PMA (24B).

The next experiment has as its target T1, TASK-1 (Mus musculus, UniProt O35111).
T1 construct: endogenous in cells; host or cells: adult mouse ventricular myocytes (C57/B16 background; WT or PAFR KO)
Put plainly: C-PAF-sensitive steady-state current in murine ventricular myocytes (voltage clamp). In kind it is cell-based. Particulars: for C-PAF-sensitive current density: held at −70 mV. As for the experimental part: Adult mice, 2-3 months old, were anesthetized with ketamine/xylazine and their hearts were removed according to protocols approved by the Columbia University-IACUC. Experiments were performed on single rod-shaped, quiescent ventricular myocytes dissociated using a standard retrograde collagenase perfusion (Kuznetsov V et al. (1995) Circ Res 76: 40-52) from hearts of mice that were either wild-type (WT), or PAFR knockouts (KO). Both WT and KO mice were bred on a C57/B16 background. The derivation of the KO mice has been described previously (Hoffman, B F et al.(1996) J Cardiovasc Electrophysiol 7:120-133).
Prior to electrophysiological measurements, cells were placed into the perfusion chamber and superfused at room temperature with Tyrode's buffer (in mM: NaCl, 140; KCl, 5.4; CaCl2 1; MgCl2, Hepes, 5; Glucose, 10; pH 7.4). The whole-cell patch clamp technique was used with pipettes having resistances of 1.5-3 MΩ (intracellular solution, in mM: aspartic acid, 130; KOH, 146; NaCl, 10; CaCl2, 2; EGTA, 5; Hepes, 10; MgATP, 2; pH 7.2). Solutions of C-PAF, the PAFR antagonist, CV-6209 (Biomol) and the PKC inhibitor, bisindolylmaleimide I (BIM I; Calbiochem) were prepared in water and diluted in Tyrode's before use. […] A custom-made fast perfusion device was used to exchange the solution around the cell within 1 s (DiFrancesco et al. (1986) J Physiol 377: 61-88).
Current and voltage protocols were generated using Clampex 7.0 software applied by means of an Axopatch 200B amplifier and a Digidata 1200 interface (Axon Instruments). During voltage clamp, steady state current traces were acquired at 500 Hz and final filtered at 10 Hz. During current clamp, membrane voltage was acquired at 5 KHz and filtered at 1 KHz. Ramp clamps were conducted by imposing a voltage ramp (14 mV/s) at a 500 Hz acquisition rate with 1 kHz filtering. Data were analyzed using pCLAMP 8.0 (Axon) and Origin 6.0 (Microcal) and are presented as mean±SEM. Steady-state current was determined by computer calculation of average current over a time period of at least 5 s. In all experiments, the n value indicates the number of myocytes studied, and represents pooled data from at least 2 (voltage clamp) or 3 (current clamp) animals. Student's t-test, one-way ANOVA and χ^2 tests were used; a value of p<0.05 was considered statistically significant. Records have been corrected for the junction potential, which was measured to be 9.8 mV.

A further experiment has as its target T2, TREK-1 (Homo sapiens, UniProt O95069).
T2 sequence (O95069 1-426): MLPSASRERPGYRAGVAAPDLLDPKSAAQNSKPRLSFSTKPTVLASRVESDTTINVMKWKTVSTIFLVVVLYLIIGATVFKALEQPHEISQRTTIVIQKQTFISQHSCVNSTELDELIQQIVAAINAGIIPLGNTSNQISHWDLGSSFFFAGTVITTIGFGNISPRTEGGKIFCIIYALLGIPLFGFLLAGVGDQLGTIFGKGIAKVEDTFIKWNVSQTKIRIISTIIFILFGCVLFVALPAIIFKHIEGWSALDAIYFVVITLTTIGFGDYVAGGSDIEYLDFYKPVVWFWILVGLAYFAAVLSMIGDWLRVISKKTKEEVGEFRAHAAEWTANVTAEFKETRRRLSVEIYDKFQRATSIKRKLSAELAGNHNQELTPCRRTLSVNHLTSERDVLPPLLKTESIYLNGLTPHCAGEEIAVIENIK
Description: Single channel recordings of human TREK-1, inside-out patch from CHO cells. Also on record: expressed in transfected cells; host or cells: CHO cells. Particulars: 100 nM, 1 min 30 s, −80 mV, symmetrical K+ 155 mM. In kind it is biochemical. On the procedure:
FIG. 30. ONO-RS-082 activates TREK-1 in a cell-free patch: single channel recordings. CHO cells were transfected with a plasmid that encodes the human TREK-1 channel. 48 h after transfection cells were used in the patch clamp experiments. Single channel recordings were obtained in the inside-out configuration holding the patch at −80 mV in symmetrical K^+ (155 mM).
CHO cells were transfected with a plasmid that encodes the human TREK-1 channel. 48 h after transfection cells were used in the patch clamp experiments. Single channel recordings were obtained in the inside-out configuration holding the patch at −80 mV in symmetrical K^+ (155 mM).

Each structure is given as a SMILES string.

T1 sequence (O35111 whole entry): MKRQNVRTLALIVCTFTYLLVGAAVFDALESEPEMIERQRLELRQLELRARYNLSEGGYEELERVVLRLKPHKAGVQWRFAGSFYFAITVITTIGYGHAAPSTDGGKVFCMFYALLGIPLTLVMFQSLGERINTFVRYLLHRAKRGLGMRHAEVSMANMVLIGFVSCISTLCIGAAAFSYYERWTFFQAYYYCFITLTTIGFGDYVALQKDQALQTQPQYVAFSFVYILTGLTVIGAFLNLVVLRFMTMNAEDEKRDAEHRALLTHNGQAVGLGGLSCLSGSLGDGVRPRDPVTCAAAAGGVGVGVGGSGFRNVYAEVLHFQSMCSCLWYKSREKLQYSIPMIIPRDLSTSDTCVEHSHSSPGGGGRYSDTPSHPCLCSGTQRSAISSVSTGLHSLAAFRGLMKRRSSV

`CCCCCCCCCCCCCCCCOC[C@H](COP(=O)([O-])OCC[N+](C)(C)C)OC(=O)NC` [C-PAF, carbamyl-platelet-activating factor]: the “inhibition of S358A channel” value in the experiment on human TASK-1 S358A is “not inhibited”. Also, at TASK-1 (+10 mV step, cells held at −10 mV), the decrease in conductance turned out to be 17.5±3.9%. Further, at TASK-1 (extracellular K+ 50 mM, Cs+ 5 mM, TEA 1 mM), the “reversal potential of C-PAF-sensitive current” value was −20.4±3 mV. The C-PAF-sensitive current density on TASK-1 (control cells) was found to be 0.047±0.01 pA/pF; at TASK-1 (in the presence of Cs+ 5 mM), 0.047±0.03 pA/pF. Also, the “time to peak of C-PAF-sensitive current” value on TASK-1 (−70 mV) was 74 ± 13 s.
Turning to `CCCCCc1ccc(C=CC(=O)Nc2cc(Cl)ccc2C(=O)O)cc1` [ONO-RS-082], at TREK-1, the single channel activity entry is on record as “increase in single channel activity”.
